Assay results as given in patent US7407936B2, “Use of copolymer 1 and related peptides and polypeptides and T cells treated herewith for neuroprotective glaucoma therapy” (Yeda Research and Development Co. Ltd., priority 2000, dated 2008).

Experiments:
[1] = tested on: retinal ganglion cells (RGCs); assay: Glutamate toxicity in mice (intravitreal glutamate), RGC survival; format: in vivo, C57BL/6J mice
[2] = batches of average molecular weight 23,000; Teitelbaum et al; cited from earlier work
retinal ganglion cells = assay: Ocular hypertension (laser-induced increased IOP) in rats, RGC survival; format: in vivo, Lewis rats; settings: immunized in CFA on the day of the first laser treatment; after 3 weeks; p<0.0001
[3] = tested on: retinal ganglion cells (RGCs); assay: Severe optic nerve crush injury in mice, RGC survival; format: in vivo, Balb/c mice; settings: 50 μg Cop-1 in CFA before severe crush; two weeks after injury; p<0.001
[4] = tested on: retinal ganglion cells (RGCs); assay: Optic nerve crush injury in rats: secondary degeneration by retrograde labeling of RGCs; format: in vivo, Lewis rats; settings: mild crush; vaccinated with Cop 1 in IFA immediately, booster two days later; P<0.05
Procedure: Crush Injury of Optic Nerve. The optic nerve was subjected to crush injury as previously described (Duvdevani et al, 1990). Briefly, rats were deeply anesthetized by intraperitoneal (i.p.) injection of Rompun (xylazine, 10 mg/kg; Vitamed, Israel) and Vetalar (ketamine, 50 mg/kg; Fort Dodge Laboratories, Fort Dodge, Iowa). Using a binocular operating microscope, lateral canthotomy was performed in the right eye, and the conjunctiva was incised lateral to the cornea. After separation of the retractor bulbi muscles, the optic nerve was exposed intraorbitally by blunt dissection. Using calibrated cross-action forceps, the optic nerve was subjected to a crush injury 1-2 mm from the eye. […]
Measurement of Secondary Degeneration by Retrograde Labeling of Retinal Ganglion Cells. Secondary degeneration of the optic nerve axons and their attached retinal ganglion cells (RGCs) was measured after post-injury application of the fluorescent lipophilic dye, 4-(4-(didecylamino)styryl)-N-methylpyridinium iodide (4-Di-10-Asp) (Molecular Probes Europe BV, Netherlands), distally to the lesion site, two weeks after crush injury. Because only axons that are intact can transport the dye back to their cell bodies, application of the dye distally to the lesion site after two weeks ensures that only axons that survived both the primary damage and the secondary degeneration will be counted. […]

[5] = patients, cited from earlier work
[6] = tested on: retinal ganglion cells (RGCs); assay: NMDA toxicity in mice (intravitreal NMDA), RGC survival; format: in vivo; settings: immunized ten days before NMDA (75 nmole); p=0.55 vs PBS

Substance | RGC survival after glutamate injection, effect of immunization ([1]; pMOG in CFA prior to glutamate (200 nmole), assessed 1 week later) | protecting and suppressing EAE [2] | glutamate toxicity in controls relative to immunized mice ([1]; 75 μg Cop 1 in CFA ten days before 200 nmoles glutamate, RGCs counted seven days later) | mean percentage survival rate of RGCs versus PBS-injected ([1]; immunization 24 h after glutamate injection) | mean percentage survival rate of RGCs versus PBS-injected ([1]; immunization 48 h after glutamate injection) | rates of RGC survival versus PBS in adjuvant ([1]; immunized on the day of glutamate injection, adjuvant 0.5 or 5 mg/ml bacteria) | glutamate toxicity (RGC survival) after immunization ([1]; immunized ten days before glutamate, adjuvant 5 mg/ml bacteria) | numbers of surviving retinal ganglion cells versus PBS/CFA controls (retinal ganglion cells) | RGC survival rates relative to non-immunized controls [3] | neuroprotection (surviving RGCs) compared with PBS in IFA [4] | number of relapses in exacerbating-remitting MS ([5]; Bornstein 1990, Sela 1990, Johnson 1994) | tolerability in clinical trials ([5]; Johnson et al, 1995) | protection from toxicity caused by NMDA (RGC survival) [6]
GQFRVIGPGHPIRALVGDEAEL (listed as Homo sapiens) [pMOG, Myelin oligodendrocyte glycoprotein (MOG) peptide 1-22] | no evidence of a beneficial effect | – | – | – | – | – | – | – | – | – | – | – | –
Glatiramer acetate [Cop 1] | – | highly effective | about four | significantly higher | not significant | significantly higher | significant reduction | significantly higher | significantly higher | significant neuroprotection | significantly reduce | well tolerated with only minor side reactions | failed to protect
